Read-outs that look alike come from different tables or passages of the source.
Key:
lettuce = test system: lettuce
Text: The purpose of the study was to determine the effect of foliar spraying with test solutions on lettuce (Lactuca sativa L. ‘Zeralda’) plants. The plants were sprayed 7 and 14 days after transplanting to a permanent site. […] After another 7 days, drought stress was induced (plants in the selected combinations were not watered until symptoms of leaf wilting appeared), followed by proper watering of the plants again. Control plants were watered in turn to a constant weight. After 3 days after re-watering, chlorophyll fluorescence was measured (OJIP test, methodology described, among others, in Kalaji H. M., 2011. Impact of abiotic stress factors on chlorophyll fluorescence in plants of selected barley cultivars Hordeum vulgare L. SGGW Publishing House, Warsaw [https://badanieroslin.pl/wp-content/uploads/2018/11/Oddzialywanie-abiotycznych-czynnikow. . . ..pdf]) and the condition of the plants was assessed.
The measurement was carried out after inducing drought stress, followed by re-watering the plants to a constant weight. […] This parameter is lowered by stresses.

winter rapeseed = conditions: for more aboveground dry matter compared to control: last harvest date, fully ripe
Text: The experiment was established using the long strip method in four repetitions. The dimensions of the plots at establishment were 96 m^2 gross, while the harvestable area was 23.25 m^2 net.
In the experiment, uniform NPK fertilization was applied, using both bulk and liquid fertilizers.
The following facilities were included in the experiment: • 1. control, no stimulant application, standard fungicide protection • 2. stimulant applied at stage 31-32 according to the BBCH development scale, standard fungicide protection • 3. stimulant applied at stage 53-55 according to the BBCH development scale, no fungicide protection

tomato seedlings = experiment: Tomato seedlings in pots sprayed 3 times: height, fresh and dry weight, chlorophyll (Example 3); format: in vivo; conditions: 80 mg/L, benzothiadiazole salt 30 mg/L
Text: Tomato seedlings (12 according to development scale BBCH) were planted into pots with peat substrate (P9 pots having 0.5 l). Plant pots were placed in greenhouse and cultivated for a 1 and a half month. Plants were sprayed with tested substance 3 times, in 10-day interval. […] 2-methoxyethyl(trimethyl)-ammonium benzo[1,2,3]thiadiazole-7-carboxylate; 3. […] 2-methoxyethyl(trimethyl)ammonium 3-chlorosalicylate; 7. 2-ethoxyethyl(trimethyl)ammonium 3-chlorosalicylate; 8. ethyl(trimethyl)ammonium 3-chlorosalicylate at a concentration od 80 mg/l. Plants were sprayed with tested substances three times at 10-day intervals. Plants in peat substrate treated with water only were the control. During the course of the experiment, the height of the plants was measured, and at the end the fresh and dry weight of the aboveground part was evaluated. Moreover chlorophyll content was measured. The experiment was conducted in 4 repetitions with 5 plants in each (a total of 20 plants per each variant of treatment).

[1] = Control (watered), double application, 3-chlorosalicylate 100 mg/L, benzothiadiazole salt 50 mg/L
[2] = Control (watered), single application, 50 mg/L
[3] = Drought, double application, 3-chlorosalicylate 100 mg/L, benzothiadiazole salt 50 mg/L
[4] = Drought, single application, 50 mg/L
[5] = double application, 3-chlorosalicylate 100 mg/L, benzothiadiazole salt 50 mg/L
[6] = BBCH 32, standard fungicide protection, 80 mg/L, benzothiadiazole salt 25 mg/L
[7] = BBCH 32, stimulant only, 80 mg/L, benzothiadiazole salt 25 mg/L
[8] = BBCH 55, standard fungicide protection, 80 mg/L, benzothiadiazole salt 25 mg/L
[9] = BBCH 55, without fungicide, 80 mg/L, benzothiadiazole salt 25 mg/L
[10] = first sampling date, stimulant at BBCH 31-32, no fungicide yet, 80 mg/L, benzothiadiazole salt 25 mg/L
[11] = second date, regardless of cultivation technology, 80 mg/L, benzothiadiazole salt 25 mg/L

For `C[N+](C)(C)CCO.O=C([O-])c1cccc2nnsc12`, the ABS/RC (lettuce; [1]) was 1.46 b, the DIo/RC (lettuce; [1]) was 0.28 b and the ETo/RC (lettuce; [1]) was 0.93 ab. For the same compound, the F0 (lettuce; [1]) was 7100 b, the FM (lettuce; [1]) was 45265 b and the FM/F0 (lettuce; [1]) was 6.52 ab. For the same compound, the Fv (lettuce; [1]) was 38164 b, the Fv/F0 (lettuce; [1]) was 5.52 abc and the Fv/FM (lettuce; [1]) was 0.85 abc. The “Pi_Abs (PSII functioning index calculated on the basis of energy absorption)” value (lettuce; [1]) was 10.33 ab, the TRo/RC (lettuce; [1]) was 1.74 b and the ABS/RC (lettuce; [2]) was 1.45 b. It also gave a DIo/RC (lettuce; [2]) of 0.28 b, an ETo/RC (lettuce; [2]) of 0.87 ab and an F0 (lettuce; [2]) of 6762 b. The FM (lettuce; [2]) was 41874 b, the FM/F0 (lettuce; [2]) was 6.19 abc and the Fv (lettuce; [2]) was 35112 b. The Fv/F0 (lettuce; [2]) was 5.19 abc, the Fv/FM (lettuce; [2]) was 0.84 abc and the “Pi_Abs (PSII functioning index calculated on the basis of energy absorption)” value (lettuce; [2]) was 4.47 a. The TRo/RC (lettuce; [2]) was 1.74 b, the ABS/RC (lettuce; [3]) was 1.14 a and the DIo/RC (lettuce; [3]) was 0.20 a. The ETo/RC (lettuce; [3]) was 0.84 ab, the F0 (lettuce; [3]) was 4965 a and the FM (lettuce; [3]) was 34715 a. It also gave an FM/F0 (lettuce; [3]) of 6.99 bc, a Fv (lettuce; [3]) of 29750 b and a Fv/F0 (lettuce; [3]) of 5.99 ab. The Fv/FM (lettuce; [3]) was 0.86 c, the “Pi_Abs (PSII functioning index calculated on the basis of energy absorption)” value (lettuce; [3]) was 12.61 days and the TRo/RC (lettuce; [3]) was 1.34 a. For the same compound, the ABS/RC (lettuce; [4]) was 1.12 a, the DIo/RC (lettuce; [4]) was 0.24 a and the ETo/RC (lettuce; [4]) was 0.75 a. The F0 (lettuce; [4]) was 5675 a, the FM (lettuce; [4]) was 32147 a and the FM/F0 (lettuce; [4]) was 5.67 a. It also gave a Fv (lettuce; [4]) of 26472 a, a Fv/F0 (lettuce; [4]) of 4.67 a and a Fv/FM (lettuce; [4]) of 0.83 a. The “Pi_Abs (PSII functioning index calculated on the basis of energy absorption)” value (lettuce; [4]) was 7.47 b, the TRo/RC (lettuce; [4]) was 1.36 a and the “% dry matter (leaf), Average” value (lettuce; [5]) was 4.67 b %. The “% dry matter (leaf), Drought” value (lettuce; [5]) was 3.61 a %, the “% dry matter (leaf), Watered” value (lettuce; [5]) was 5.73 c % and the “Head and root weight, Average” value (lettuce; [5]) was 69.4 a g/plant. The “Head and root weight, Drought” value (lettuce; [5]) was 70.6 ab g/plant, the “Head and root weight, Watered” value (lettuce; [5]) was 69.2 a g/plant and the “Head weight, Average” value (lettuce; [5]) was 53.4 a g/plant. For the same compound, the “Head weight, Drought” value (lettuce; [5]) was 51.6 ab g/plant, the “Head weight, Watered” value (lettuce; [5]) was 51.6 b g/plant and the “RWC (relative water content), Watered” value (lettuce; [5]) was 74.3 b %. The “RWC, Average” value (lettuce; [5]) was 75.0 a %, the “RWC, Drought” value (lettuce; [5]) was 64.0 a % and the “% dry matter (leaf), Average” value (lettuce; single application, 50 mg/L) was 3.75 b %. The “% dry matter (leaf), Drought” value (lettuce; single application, 50 mg/L) was 3.59 b %, the “% dry matter (leaf), Watered” value (lettuce; single application, 50 mg/L) was 3.51 b % and the “Head and root weight, Average” value (lettuce; single application, 50 mg/L) was 84.6 b g/plant. For the same compound, the “Head and root weight, Drought” value (lettuce; single application, 50 mg/L) was 84.4 bc g/plant, the “Head and root weight, Watered” value (lettuce; single application, 50 mg/L) was 85.2 c g/plant and the “Head weight, Average” value (lettuce; single application, 50 mg/L) was 65.1 b g/plant. For the same compound, the “Head weight, Drought” value (lettuce; single application, 50 mg/L) was 62.5 c g/plant, the “Head weight, Watered” value (lettuce; single application, 50 mg/L) was 65.3 c g/plant and the “RWC (relative water content), Watered” value (lettuce; single application, 50 mg/L) was 77.1 b %. The “RWC, Average” value (lettuce; single application, 50 mg/L) was 74.5 a %, the “RWC, Drought” value (lettuce; single application, 50 mg/L) was 71.5 ab % and the “increase in calcium uptake” value (winter rapeseed; [6]) was 5%. The “increase in magnesium uptake” value (winter rapeseed; [6]) was 5%, the “increase in nitrogen uptake” value (winter rapeseed; [6]) was 5% and the “increase in phosphorus uptake” value (winter rapeseed; [6]) was 5%. For the same compound, the “increase in potassium uptake” value (winter rapeseed; [6]) was 6%, the “increase in calcium uptake” value (winter rapeseed; [7]) was 9% and the “increase in magnesium uptake” value (winter rapeseed; [7]) was 11%. The “increase in nitrogen uptake” value (winter rapeseed; [7]) was 8%, the “increase in phosphorus uptake” value (winter rapeseed; [7]) was 9% and the “increase in potassium uptake” value (winter rapeseed; [7]) was 7%. For the same compound, the higher fat content (winter rapeseed; BBCH 32, with fungicide, 80 mg/L, benzothiadiazole salt 25 mg/L) was 6%, the higher fat content (winter rapeseed; BBCH 32, without fungicide, 80 mg/L, benzothiadiazole salt 25 mg/L) was 8% and the “increase in calcium uptake” value (winter rapeseed; [8]) was 10%. For the same compound, the “increase in fat content” value (winter rapeseed; [8]) was 6%, the “increase in magnesium uptake” value (winter rapeseed; [8]) was 9% and the “increase in nitrogen uptake” value (winter rapeseed; [8]) was 9%. For the same compound, the “increase in phosphorus uptake” value (winter rapeseed; [8]) was 11%, the “increase in potassium uptake” value (winter rapeseed; [8]) was 8% and the “increase in calcium uptake” value (winter rapeseed; [9]) was 9%. For the same compound, the “increase in fat content” value (winter rapeseed; [9]) was “increase”, the “increase in magnesium uptake” value (winter rapeseed; [9]) was 13% and the “increase in nitrogen uptake” value (winter rapeseed; [9]) was 12%. The “increase in phosphorus uptake” value (winter rapeseed; [9]) was 9%, the “increase in potassium uptake” value (winter rapeseed; [9]) was 8% and the “seed yields higher compared to control” value (winter rapeseed; both fungicide and stimulant treatments, 80 mg/L, benzothiadiazole salt 25 mg/L) was 12%. The “chlorophyll content, differences between the tested objects” value (winter rapeseed; first measurement date) was “no differences were observed”, the “more biomass (dry weight) compared to control” value (winter rapeseed; [10]) was 29% and the “more biomass (fresh weight) compared to control” value (winter rapeseed; [10]) was 28%. For the same compound, the “more aboveground dry matter compared to control” value (winter rapeseed; only the stimulant, 80 mg/L, benzothiadiazole salt 25 mg/L) was 32%, the “more aboveground dry matter compared to control” value (winter rapeseed; with fungicide protection, 80 mg/L, benzothiadiazole salt 25 mg/L) was 38% and the “more dry weight compared to control, on average” value (winter rapeseed; [11]) was 26%. The “more fresh weight compared to control, on average” value (winter rapeseed; [11]) was 24%, the “weight of one thousand seeds higher compared to control” value (winter rapeseed; tested combinations, 80 mg/L, benzothiadiazole salt 25 mg/L) was 12% and the “more chlorophyll in the leaves (SPAD) compared to control” value (“more chlorophyll … compared to control” for short) (winter rapeseed; with a fungicide, printed 'first date' (of second and third measurement dates), 80 mg/L, benzothiadiazole salt 25 mg/L) was 6%. For the same compound, the “more chlorophyll … compared to control” value (winter rapeseed; with a fungicide, printed 'second date', 80 mg/L, benzothiadiazole salt 25 mg/L) was 8%, the “more chlorophyll … compared to control” value (winter rapeseed; without a fungicide, printed 'first date', 80 mg/L, benzothiadiazole salt 25 mg/L) was 8% and the “more chlorophyll … compared to control” value (winter rapeseed; without a fungicide, printed 'second date', 80 mg/L, benzothiadiazole salt 25 mg/L) was 12%. The “seed yields higher compared to control” value (winter rapeseed; without fungicide protection, stimulant at BBCH 31-32, 80 mg/L, benzothiadiazole salt 25 mg/L) was 9%, the “Average plant height, before second treatment” value (tomato seedlings; chitosan lactate 50 mg/l) was 146.7 b mm and the “Average plant height, before third treatment” value (tomato seedlings; chitosan lactate 50 mg/l) was 337.1 b mm. For the same compound, the “Average plant height, initial height, before first treatment” value (tomato seedlings; chitosan lactate 50 mg/l) was 60.5 a mm, the “Chlorophyll content (SPAD), a day after treatment #1” value (tomato seedlings; chitosan lactate 50 mg/l) was 76.1 b and the “Chlorophyll content (SPAD), a day after treatment #2” value (tomato seedlings; chitosan lactate 50 mg/l) was 81.3 c. For the same compound, the “Chlorophyll content (SPAD), a day after treatment #3” value (tomato seedlings; chitosan lactate 50 mg/l) was 78.2 b, the Plant height increase (tomato seedlings; chitosan lactate 50 mg/l) was 276.6 b mm and the Average dry mass (tomato seedlings; above-ground part) was 87.5 b g. The Average fresh mass (tomato seedlings; above-ground part) was 333.5 b g, the “Chlorophyll content (SPAD), Treatment #1” value (tomato seedlings; before treatment #1, chitosan lactate 50 mg/l) was 49.6 a and the “Chlorophyll content (SPAD), Treatment #2” value (tomato seedlings; before treatment #2, chitosan lactate 50 mg/l) was 47.5 a. The “Chlorophyll content (SPAD), Treatment #3” value (tomato seedlings; before treatment #3, chitosan lactate 50 mg/l) was 50.1 a.
